Reference: article PMC5364125 (EJNMMI Research, 2017)
Several values for one entry are separate records, joined by “and”; a condition that tells them apart may be missing. Identical values can stand only once. Like-named read-outs stand apart in the source and are kept apart here.

How the values were obtained:
TSPO [1] = conditions: cited from earlier work
[2] = design: method as in PMID 27329083; conditions: cited from earlier work
[3] = design: method as in PMID 27329083; conditions: rats; cited from earlier work
[4] = design: method as in PMID 25616581; conditions: cited from earlier work
TSPO [5] = conditions: human subjects; cited from earlier work
TSPO [6] = test: Dynamic brain PET, V T by two-tissue compartment model; type: in vivo, human
Method: (§1) PET scanning was performed using a Discovery PET/computed tomography (CT) 710 scanner (GE Healthcare, Milwaukee, WI) in 3D mode. This scanner has an axial field of view of 15.7 cm, a spatial resolution of 4.5 mm full width at half maximum (FWHM), and a Z-axis resolution of 4.8 mm FWHM. We acquired 47 slices. […] Arterial blood (0.5 mL each) was sampled at 10, 20, 30, 40, 50, 60, 70, 80, 90, 100, 110, 120, 135, 150, and 180 s, as well as at 5, 7, 10, 15, 20, 30, 40, 50, 60, 75, and 90 min. The whole blood and separated plasma were weighed, and radioactivity was measured with a NaI (Tl) well scintillation counter (BeWell Model-QS03 F/B; Molecular Imaging Labo, Suita, Japan). To analyze the labeled metabolites, 1.5 mL additional blood was obtained at 3, 10, 20, 30, 40, and 60 min. After the PET scan, urine was obtained from each subject, and radioactivity was measured.
The dynamic images were post-smoothed with a 4-mm FWHM Gaussian filter. The data were reconstructed in 128 × 128 × 47 voxels, and the voxel size was 2 × 2 × 3.27 mm. Partially overlapping circular regions of interests (ROIs) that were 10 mm in diameter were placed on the frontal, temporal, parietal, occipital, and cerebellar cortices, thalamus, putamen, and head of the caudate nucleus with reference to the co-registered MRI. TACs for these ROIs were calculated as becquerel per milliliter or as standardized uptake value (SUV): (activity/ml tissue)/(injected activity/g body weight). […] The goodness of fit by the two-model analysis was evaluated using AIC.

[7] = From the text: The protocol for investigating radiation dosimetry in human subjects using whole-body imaging was essentially the same as that reported previously.
Whole-body PET/CT scans were obtained using a Discovery 710 PET/CT scanner (GE Healthcare) in 3D mode. LD-CT was used for attenuation correction of the PET emission scan. […] Then, 128-min scans (18 frames, 13 bed positions per frame, overlap of 23 of 47 slices per bed, 15 s/bed × four frames, 30 s/bed × 12 frames, and 60 s/bed × two frames) from the top of the head to mid-thigh were performed. Images were reconstructed using a 3D-ordered subset expectation maximization algorithm (subset, 24; iteration, 2) with a 6.4-mm Gaussian filter.
ROIs were manually placed over […] that could be identified on PET or LD-CT: adrenals, brain, gallbladder, small intestine, stomach, heart wall, kidneys, liver, lungs, pancreas, bone marrow (thoracic and lumbar vertebrae), spleen, testes, thymus, thyroid, and urinary bladder. The decay-uncorrected and decay-corrected TACs of organs were calculated as the percent injected dose (%ID) per milliliter and the %ID per organ. The volume of bone marrow, in which only part of the organ could be measured, was substituted by the volume that was calculated from the mass of red marrow in the adult male phantom (1.12 kg for 73.7 kg of body weight) adjusted by the subject’s body weight and 1.04 g/mL as the specific gravity. The normalized number of disintegrations (MBq-h/MBq administered) for each source organ is equal to the area under the time course of decay-uncorrected curve (%ID/mL) multiplied by the volume of the organ ROI. The area under the time course curve was calculated by summing the area from time zero to the endpoint of the scan and the area from the endpoint of the scan to infinity. The former area was calculated by trapezoidal integration. The latter area was calculated by integration of radioactive decay from the endpoint.
The absorbed doses in 25 target organs of the adult male phantom were estimated from the normalized number of disintegrations of source organs by implementing the Medical Internal Radiation Dose method using OLINDA/EXM (Vanderbilt University). The effective dose was also calculated by OLINDA/EXM using the methodology described in International Commission on Radiological Protection Publication 60 [40].

TSPO [8] = system: TSPO; design: method as in PMID 25771904; conditions: herpes encephalitis rat model; cited from earlier work
TSPO [9] = system: TSPO; design: method as in PMID 25616581; conditions: 6-hydroxydopamine-injured striatum; cited from earlier work
[10] = estimated from murine distribution data; cited from earlier work
[11] = HPLC metabolite analysis of plasma and urine; type: in vivo, human
Method: as §1

[12] = two-tissue compartment model, typical subjects n = 4

COc1ccccc1CN(C(C)=O)c1cnccc1Oc1ccccc1 [PBR28]
relative TSPO binding affinity to (R)-PK11195 (TSPO [1]): 2–5 folds

CCCN(CCC)C(=O)Cc1c(-c2ccc(OC)cc2)nc2c(Cl)cc(Cl)cn12 [CB184]
mutagenicity [2]: absence of mutagenicity
relative TSPO binding affinity to (R)-PK11195 (TSPO [1]): 7.9 fold
Ki (TSPO [1]; read-out: K i, affinity for TSPO): 0.54 nM
abnormalities in the acute toxicity test [3]: absence of any abnormalities
logP [4]: 2.06

CCN(CC)C(=O)Cc1c(-c2ccc(O[11CH3])cc2)nn2c(C)cc(C)nc12 [[^11C]DPA-713]
V T caudate (TSPO [5]): 3.1 ± 0.6
V T cerebellum (TSPO [5]): 3.9 ± 0.9
V T frontal cortex (TSPO [5]): 4.1 ± 0.8
V T parietal cortex (TSPO [5]): 3.7 ± 0.7
V T putamen (TSPO [5]): 3.5 ± 0.6
V T thalamus (TSPO [5]): 4.7 ± 0.9

CCCN(CCC)C(=O)Cc1c(-c2ccc(O[11CH3])cc2)nc2c(Cl)cc(Cl)cn12 [[^11C]CB184, N,N-di-n-propyl-2-[2-(4-[^11C]methoxyphenyl)-6,8-dichloroimidazol[1,2-a]pyridine-3-yl]acetamide]
time of peak radioactivity in all gray matter regions (TSPO [6]; after intravenous injection, typical subjects n = 4): about 5 min
V T values relative to those of (R)-[^11C]PK11195 (TSPO [6]; comparison with ref 15 values): 10 times
V T caudate (TSPO [6]; [12]): 3.2 ± 0.1 mL/cm^3
V T cerebellum (TSPO [6]; [12]): 4.4 ± 0.2 mL/cm^3
V T frontal cortex (TSPO [6]; [12]): 4.0 ± 0.2 mL/cm^3
V T occipital cortex (TSPO [6]; [12]): 4.3 ± 0.2 mL/cm^3 and 4.3 ± 0.5 mL/cm^3
V T parietal cortex (TSPO [6]; [12]): 3.9 ± 0.3 mL/cm^3
V T putamen (TSPO [6]; [12]): 4.0 ± 0.2 mL/cm^3
V T temporal cortex (TSPO [6]; [12]): 3.9 ± 0.4 mL/cm^3
V T thalamus (TSPO [6]; [12]): 5.1 ± 0.4 mL/cm^3
radioactivity voided into urine, of the injected activity ([7]; at 132 ± 0 min, n = 3): 0.3% ± 0
lungs radioactivity, initial time point ([7]; at 3.3 min, one subject): 25 %ID
lungs uptake ([7]; first frame): 25 % injected activity
Absorbed dose, Adrenals ([7]; healthy male subjects n = 3): 4.6 ± 0.9 μGy/MBq
Absorbed dose, Brain ([7]; healthy male subjects n = 3): 4.0 ± 0.3 μGy/MBq
Absorbed dose, Breasts ([7]; healthy male subjects n = 3): 2.2 ± 0.0 μGy/MBq
Absorbed dose, Gallbladder wall ([7]; healthy male subjects n = 3): 5.4 ± 0.4 μGy/MBq
Absorbed dose, Heart wall ([7]; healthy male subjects n = 3): 12.8 ± 0.5 μGy/MBq
Absorbed dose, Kidneys ([7]; healthy male subjects n = 3): 21.0 ± 0.5 μGy/MBq
Absorbed dose, Liver ([7]; healthy male subjects n = 3): 8.3 ± 0.9 μGy/MBq
Absorbed dose, Lower large intestine wall ([7]; healthy male subjects n = 3): 2.3 ± 0.1 μGy/MBq
Absorbed dose, Lungs ([7]; healthy male subjects n = 3): 16.8 ± 2.7 μGy/MBq
Absorbed dose, Muscle ([7]; healthy male subjects n = 3): 2.2 ± 0.1 μGy/MBq
Absorbed dose, Osteogenic cells ([7]; healthy male subjects n = 3): 3.6 ± 0.1 μGy/MBq
Absorbed dose, Ovaries ([7]; healthy male subjects n = 3): 2.5 ± 0.1 μGy/MBq
Absorbed dose, Pancreas ([7]; healthy male subjects n = 3): 16.5 ± 2.2 μGy/MBq
Absorbed dose, Red marrow ([7]; healthy male subjects n = 3): 3.2 ± 0.1 μGy/MBq
Absorbed dose, Skin ([7]; healthy male subjects n = 3): 1.7 ± 0.1 μGy/MBq
Absorbed dose, Small intestine ([7]; healthy male subjects n = 3): 5.4 ± 0.9 μGy/MBq
Absorbed dose, Spleen ([7]; healthy male subjects n = 3): 16.6 ± 6.6 μGy/MBq
Absorbed dose, Stomach wall ([7]; healthy male subjects n = 3): 4.5 ± 0.9 μGy/MBq
Absorbed dose, Testes ([7]; healthy male subjects n = 3): 3.6 ± 0.7 μGy/MBq
Absorbed dose, Thymus ([7]; healthy male subjects n = 3): 2.1 ± 0.0 μGy/MBq
Absorbed dose, Thyroid ([7]; healthy male subjects n = 3): 12.0 ± 3.9 μGy/MBq
Absorbed dose, Total body ([7]; healthy male subjects n = 3): 2.8 ± 0.0 μGy/MBq
Absorbed dose, Upper large intestine wall ([7]; healthy male subjects n = 3): 2.8 ± 0.1 μGy/MBq
Absorbed dose, Urinary bladder wall ([7]; healthy male subjects n = 3): 2.1 ± 0.1 μGy/MBq
Absorbed dose, Uterus ([7]; healthy male subjects n = 3): 2.5 ± 0.1 μGy/MBq
Effective dose ([7]; healthy male subjects n = 3): 5.9 ± 0.6 μSv/MBq
lungs uptake ([7]; last frame): 4.2 % injected activity
Normalized number of disintegrations, Adrenals ([7]; mean ± SD, n = 3): 1.3E-04 ± 5.7E-05 (9.5E-05 – 2.0E-04) MBq-h/MBq administered
Normalized number of disintegrations, Brain ([7]; mean ± SD, n = 3): 1.6E-02 ± 1.3E-03 (1.5E-02 – 1.7E-02) MBq-h/MBq administered
Normalized number of disintegrations, Gallbladder contents ([7]; mean ± SD, n = 3): 8.6E-04 ± 2.3E-04 (7.1E-04 – 1.1E-03) MBq-h/MBq administered
Normalized number of disintegrations, Heart wall ([7]; mean ± SD, n = 3): 1.3E-02 ± 6.2E-04 (1.3E-02 – 1.4E-02) MBq-h/MBq administered
Normalized number of disintegrations, Kidneys ([7]; mean ± SD, n = 3): 2.2E-02 ± 4.7E-04 (2.2E-02 – 2.2E-02) MBq-h/MBq administered
Normalized number of disintegrations, Liver ([7]; mean ± SD, n = 3): 4.2E-02 ± 5.4E-03 (3.8E-02 – 4.8E-02) MBq-h/MBq administered
Normalized number of disintegrations, Lungs ([7]; mean ± SD, n = 3): 6.2E-02 ± 1.1E-02 (5.1E-02 – 7.2E-02) MBq-h/MBq administered
Normalized number of disintegrations, Pancreas ([7]; mean ± SD, n = 3): 5.2E-03 ± 7.6E-04 (4.5E-03 – 6.0E-03) MBq-h/MBq administered
Normalized number of disintegrations, Red marrow ([7]; mean ± SD, n = 3): 1.0E-02 ± 1.7E-03 (8.8E-03 – 1.2E-02) MBq-h/MBq administered
Normalized number of disintegrations, Remainder ([7]; mean ± SD, n = 3): 2.9E-01 ± 2.0E-02 (2.8E-01 – 3.2E-01) MBq-h/MBq administered
Normalized number of disintegrations, Small intestine ([7]; mean ± SD, n = 3): 1.0E-02 ± 2.9E-03 (6.9E-03 – 1.3E-02) MBq-h/MBq administered
Normalized number of disintegrations, Spleen ([7]; mean ± SD, n = 3): 1.0E-02 ± 4.5E-03 (4.9E-03 – 1.3E-02) MBq-h/MBq administered
Normalized number of disintegrations, Stomach ([7]; mean ± SD, n = 3): 3.2E-03 ± 1.7E-03 (2.1E-03 – 5.2E-03) MBq-h/MBq administered
Normalized number of disintegrations, Testes ([7]; mean ± SD, n = 3): 4.3E-04 ± 1.1E-04 (3.1E-04 – 5.0E-04) MBq-h/MBq administered
Normalized number of disintegrations, Thymus ([7]; mean ± SD, n = 3): 3.8E-05 ± 1.8E-06 (3.7E-05 – 4.1E-05) MBq-h/MBq administered
Normalized number of disintegrations, Thyroid ([7]; mean ± SD, n = 3): 9.4E-04 ± 3.4E-04 (6.3E-04 – 1.3E-03) MBq-h/MBq administered
Normalized number of disintegrations, Urinary bladder contents ([7]; mean ± SD, n = 3): 9.8E-05 ± 3.7E-05 (5.5E-05 – 1.2E-04) MBq-h/MBq administered
time of peak radioactivity in liver ([7]; whole-body PET): 20 min
regional uptake into inflamed areas compared with (R)-[^11C]PK11195 (TSPO [8]): higher
regional uptake into inflamed areas compared with (R)-[^11C]PK11195 (TSPO [9]): comparable
organ with highest radiation-absorbed dose [10]: highest in the lung
Percentage of radioactivity in plasma ([11]; 3 min after intravenous injection of [^11C]CB184, n = 5): 96.1 ± 2.7%
Percentage of radioactivity in plasma ([11]; 10 min after intravenous injection of [^11C]CB184, n = 5): 83.8 ± 8.9%
Percentage of radioactivity in plasma ([11]; 20 min after intravenous injection of [^11C]CB184, n = 5): 61.6 ± 8.0%
Percentage of radioactivity in plasma ([11]; 30 min after intravenous injection of [^11C]CB184, n = 5): 52.9 ± 4.9%
Percentage of radioactivity in plasma ([11]; 40 min after intravenous injection of [^11C]CB184, n = 5): 47.0 ± 5.0%
parent radioligand in voided urine ([11]; HPLC of voided urine): not detected
broad hydrophilic metabolites in urine ([11]; HPLC of voided urine, n = 3): 99.4% ± 0.6
total injected radioactivity recovered in urine ([11]; approximately 100 min post-injection): 0.3%
radioactivity voided into urine, of the injected activity ([11]; at 111 ± 17 min, n = 8): 0.3% ± 0.0
